For one substance, IC50 results are on record in US11597739B2, “Enhancing CD8+ T cells for adoptive T cell therapy by inhibiting PTPN1 (PTP1B) and PTPN2 (TC-PTP)” (The Royal Institution for the Advancement of …, priority 2017, dated 2023).

In the test the target is TC-PTP (Homo sapiens (Human), UniProt P17706). The test is described as follows: Enzyme assay for TC-PTP. The format is biochemical. The note with it: inhibition of TC-PTP enzymatic activity. As to the method: 1) Enzyme Assay for TC-PTP
TC-PTP, sequence (P17706 whole entry, species assumed): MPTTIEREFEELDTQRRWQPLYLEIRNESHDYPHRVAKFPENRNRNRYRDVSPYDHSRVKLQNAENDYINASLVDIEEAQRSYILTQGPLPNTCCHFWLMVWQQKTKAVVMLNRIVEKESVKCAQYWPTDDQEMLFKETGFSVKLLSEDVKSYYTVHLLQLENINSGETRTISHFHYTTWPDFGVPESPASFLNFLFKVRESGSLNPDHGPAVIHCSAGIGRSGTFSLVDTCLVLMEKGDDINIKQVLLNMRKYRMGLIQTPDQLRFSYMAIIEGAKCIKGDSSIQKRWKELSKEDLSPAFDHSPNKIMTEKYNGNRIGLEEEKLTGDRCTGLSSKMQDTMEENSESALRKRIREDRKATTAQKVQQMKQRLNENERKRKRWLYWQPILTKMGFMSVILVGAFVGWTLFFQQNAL
The assay was carried out at room temperature in 96 well plates. The reaction mixture in 170 μl contained 50 mM Bis-Tris (pH=6.3), 2 mM EDTA, 5 mM N,N′-dimethyl-N,N′bis(mercaptoacetyl)hydrazine (DMH) and 10 μM fluorescein diphosphare (FDP) or 6,8-difluoro-4-methylumbelliferyl phosphate (DiFMUP). 10 μl of 10 concentrations (serial dilution) of the test compound (inhibitor) dissolved in DMSO or DMSO alone for control was added to each well and the plate was mixed for 2 min. The reaction was initiated by adding 20 μl of diluted TC-PTP (50 nM for FDP, 0.5 nM for DiFMUP in 50 mM Bis/Tris (pH=6.3), 2 mM EDTA, 5 mM DMH, 20% glycerol and 0.01% Triton X-100. The phosphatase activity was followed by monitoring the appearance of the fluorescent product fluorescein monophosphate (FMP) or 6,8-difluoro-7-hydroxyl-4-coumarin (DiFMU) continuously for 15-30 min, using the Spectromax Gemini fluorescent plate reader ([…]) with excitation of 440 nm and emission at 530 nm (cutoff filter at 525 nm) for FDP and excitation at 360 nm and emission at 450 nm (cutoff filter at 435 nm) for DiFMUP. All the assays were done at least in duplicate. The initial rate of FMP or DiFMU formation is plotted against the concentration of inhibitor and the data was fitted to 4-parameter equation and the inflection point of the fit is the IC50.

The term IC50 denotes the midpoint of a concentration-inhibition curve. With “[(3-BROMO-7-CYANO-2-NAPHTHYL)(DIFLUORO)METHYL]PHOSPHONATE [Ex. 10]”, the midpoint of inhibition, the IC50, lay at 490 nM. In other words, the sub-micromolar range.
